Data published in PubChem BioAssay AID1963442 (Molecular Pharmacology Branch, DTP, NCI, 2024).

System: MPNST complex spheroid with HUVEC/MSC, growth, % test/control
Experiment: Anticancer human tumor MPNST cell line growth inhibition [Asc];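 also: compounds left on spheroids for seven days before reading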
Settings: for IC50: curve of first compound; for viability, T/C: stronger effect = lower value
Summary of the method: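 Tumor cells were grown as multicellular spheroids with stromal HUVEC and mesenchymal stem cells and treated singly or in combination. Concentrations fell in half-log steps from the clinical Cmax, or from 10 microM where none was known.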

[1] = second compound 0.1 µM, first compound 0.00316 µM
[2] = second compound 0.1 µM, first compound 0.01 µM
[3] = second compound 0.1 µM, first compound 0.0316 µM
[4] = second compound 0.1 µM, first compound 0.1 µM
[5] = second compound 0.1 µM, first compound 0.316 µM
[6] = second compound 0.1 µM, first compound 1 µM
[7] = second compound 0.316 µM, first compound 0.00316 µM
[8] = second compound 0.316 µM, first compound 0.01 µM
[9] = second compound 0.316 µM, first compound 0.0316 µM
[10] = second compound 0.316 µM, first compound 0.1 µM
[11] = second compound 0.316 µM, first compound 0.316 µM
[12] = second compound 0.316 µM, first compound 1 µM
[13] = second compound 1 µM, first compound 0.00316 µM
[14] = second compound 1 µM, first compound 0.01 µM
[15] = second compound 1 µM, first compound 0.0316 µM
[16] = second compound 1 µM, first compound 0.1 µM
[17] = second compound 1 µM, first compound 0.316 µM
[18] = second compound 1 µM, first compound 1 µM
[19] = second compound 3.16 µM, first compound 0.00316 µM
[20] = second compound 3.16 µM, first compound 0.01 µM
[21] = second compound 3.16 µM, first compound 0.0316 µM
[22] = second compound 3.16 µM, first compound 0.1 µM
[23] = second compound 3.16 µM, first compound 0.316 µM
[24] = second compound 3.16 µM, first compound 1 µM
[25] = second compound 10 µM, first compound 0.00316 µM
[26] = second compound 10 µM, first compound 0.01 µM
[27] = second compound 10 µM, first compound 0.0316 µM
[28] = second compound 10 µM, first compound 0.1 µM
[29] = second compound 10 µM, first compound 0.316 µM
[30] = second compound 10 µM, first compound 1 µM

In the case of `CNC(C)C(=O)NC1CN(S(=O)(=O)c2cccc(S(=O)(=O)N3CCC4CCC(C(=O)NC(c5ccccc5)c5ccccc5)N4C(=O)C(NC(=O)C(C)NC)C3)c2)CCC2CCC(C(=O)NC(c3ccccc3)c3ccccc3)N2C1=O` (stereo not given) + Cc1c(S(C)(=O)=O)c(-c2cc(F)cc(N3CCN(c4ccc(NS(=O)(=O)c5ccc(NC(CCN6CCC(C(=O)OCCCP(=O)(O)O)CC6)CSc6ccccc6)c(S(=O)(=O)C(F)(F)F)c5)cc4)CC3)c2)c(-c2ccc(Cl)cc2)n1C(C)C, the IC50 (second compound 0.1 µM) is reported as > 1000 nM, the IC50 (second compound 0.316 µM) is reported as > 1000 nM and the IC50 (second compound 1 µM) is reported as > 1000 nM. For the same molecule, the IC50 (second compound 3.16 µM) was > 1000 nM, the IC50 (second compound 10 µM) was > 1000 nM and the viability, T/C [1] was 121%. For the same molecule, the viability, T/C [2] was 143%, the viability, T/C [3] was 162% and the viability, T/C [4] was 165%. It also gave a viability, T/C [5] of 126%, a viability, T/C [6] of 108% and a viability, T/C [7] of 139%. It also gave a viability, T/C [8] of 150%, a viability, T/C [9] of 127% and a viability, T/C [10] of 149%. It also gave a viability, T/C [11] of 121%, a viability, T/C [12] of 135% and a viability, T/C [13] of 145%. For the same molecule, the viability, T/C [14] was 150%, the viability, T/C [15] was 152% and the viability, T/C [16] was 147%. It also gave a viability, T/C [17] of 194%, a viability, T/C [18] of 160% and a viability, T/C [19] of 132%. For the same molecule, the viability, T/C [20] was 185%, the viability, T/C [21] was 171% and the viability, T/C [22] was 141%. For the same molecule, the viability, T/C [23] was 151%, the viability, T/C [24] was 159% and the viability, T/C [25] was 143%. It also gave a viability, T/C [26] of 200%, a viability, T/C [27] of 216% and a viability, T/C [28] of 159%. For the same molecule, the viability, T/C [29] was 185% and the viability, T/C [30] was 179%.

With `C=C(F)C(=O)N1CCN(c2nc(OCC3CCCN3C)nc3c2CCN(c2cccc4cccc(Cl)c24)C3)CC1CC#N` (stereo not given) + Cc1c(S(C)(=O)=O)c(-c2cc(F)cc(N3CCN(c4ccc(NS(=O)(=O)c5ccc(NC(CCN6CCC(C(=O)OCCCP(=O)(O)O)CC6)CSc6ccccc6)c(S(=O)(=O)C(F)(F)F)c5)cc4)CC3)c2)c(-c2ccc(Cl)cc2)n1C(C)C the IC50 (second compound 0.1 µM) was > 10000 nM, the IC50 (second compound 0.316 µM) was 3720 nM and the IC50 (second compound 1 µM) was 2880 nM. For the same molecule, the IC50 (second compound 3.16 µM) was 1980 nM, the IC50 (second compound 10 µM) was 3300 nM and the viability, T/C [3] was 65.5%. For the same molecule, the viability, T/C [4] was 66.2%, the viability, T/C [5] was 69.8% and the viability, T/C [6] was 81.1%. The viability, T/C (second compound 0.1 µM, first compound 3.16 µM) was 74.7%, the viability, T/C (second compound 0.1 µM, first compound 10 µM) was 51.3% and the viability, T/C [9] was 67.2%. The viability, T/C [10] was 61.1%, the viability, T/C [11] was 69.6% and the viability, T/C [12] was 58%. For the same molecule, the viability, T/C (second compound 0.316 µM, first compound 3.16 µM) was 52.4%, the viability, T/C (second compound 0.316 µM, first compound 10 µM) was 36.2% and the viability, T/C [15] was 73.5%. The viability, T/C [16] was 75.4%, the viability, T/C [17] was 67.6% and the viability, T/C [18] was 53.9%. It also gave a viability, T/C (second compound 1 µM, first compound 3.16 µM) of 53.5%, a viability, T/C (second compound 1 µM, first compound 10 µM) of 41.1% and a viability, T/C [21] of 78.2%. It also gave a viability, T/C [22] of 70%, a viability, T/C [23] of 64.5% and a viability, T/C [24] of 57.3%. It also gave a viability, T/C (second compound 3.16 µM, first compound 3.16 µM) of 46.2%, a viability, T/C (second compound 3.16 µM, first compound 10 µM) of 32.7% and a viability, T/C [27] of 53.5%. For the same molecule, the viability, T/C [28] was 65.8%, the viability, T/C [29] was 71.2% and the viability, T/C [30] was 64.4%. For the same molecule, the viability, T/C (second compound 10 µM, first compound 3.16 µM) was 50.8% and the viability, T/C (second compound 10 µM, first compound 10 µM) was 30.3%.

`CCN1CCN(Cc2ccc(Nc3ncc(F)c(-c4cc(F)c5nc(C)n(C(C)C)c5c4)n3)nc2)CC1` + Cc1c(S(C)(=O)=O)c(-c2cc(F)cc(N3CCN(c4ccc(NS(=O)(=O)c5ccc(NC(CCN6CCC(C(=O)OCCCP(=O)(O)O)CC6)CSc6ccccc6)c(S(=O)(=O)C(F)(F)F)c5)cc4)CC3)c2)c(-c2ccc(Cl)cc2)n1C(C)C was tested, and the IC50 (second compound 0.1 µM) was > 1000 nM, the IC50 (second compound 0.316 µM) was > 1000 nM and the IC50 (second compound 1 µM) was > 1000 nM. The IC50 (second compound 3.16 µM) was 1000 nM, the IC50 (second compound 10 µM) was 316 nM and the viability, T/C [1] was 75.8%. The viability, T/C [2] was 72.3%, the viability, T/C [3] was 73.7% and the viability, T/C [4] was 78.3%. For the same molecule, the viability, T/C [5] was 55.8%, the viability, T/C [6] was 64.5% and the viability, T/C [7] was 82.8%. For the same molecule, the viability, T/C [8] was 54.8%, the viability, T/C [9] was 75.6% and the viability, T/C [10] was 84.2%. The viability, T/C [11] was 53.5%, the viability, T/C [12] was 58% and the viability, T/C [13] was 76.6%. For the same molecule, the viability, T/C [14] was 78.5%, the viability, T/C [15] was 76.9% and the viability, T/C [16] was 62.3%. For the same molecule, the viability, T/C [17] was 53%, the viability, T/C [18] was 55.1% and the viability, T/C [19] was 73.3%. It also gave a viability, T/C [20] of 77.9%, a viability, T/C [21] of 57% and a viability, T/C [22] of 47.6%. It also gave a viability, T/C [23] of 56.3%, a viability, T/C [24] of 47.3% and a viability, T/C [25] of 83.5%. It also gave a viability, T/C [26] of 91.4%, a viability, T/C [27] of 50.2% and a viability, T/C [28] of 52.8%. It also gave a viability, T/C [29] of 55.4% and a viability, T/C [30] of 47.1%.

For `CCN1C(C(=O)NC23CCC(C(=O)O)(CC2)CC3)C(c2cccc(Cl)c2F)C2(C(=O)Nc3cc(Cl)ccc32)C12CCCCC2` (stereo not given) + Cc1c(S(C)(=O)=O)c(-c2cc(F)cc(N3CCN(c4ccc(NS(=O)(=O)c5ccc(NC(CCN6CCC(C(=O)OCCCP(=O)(O)O)CC6)CSc6ccccc6)c(S(=O)(=O)C(F)(F)F)c5)cc4)CC3)c2)c(-c2ccc(Cl)cc2)n1C(C)C, the IC50 (second compound 0.1 µM) was > 3000 nM, the IC50 (second compound 0.316 µM) was > 3000 nM and the IC50 (second compound 1 µM) was > 3000 nM. The IC50 (second compound 3.16 µM) was > 3000 nM, the IC50 (second compound 10 µM) was > 3000 nM and the viability, T/C (second compound 0.1 µM, first compound 0.00949 µM) was 66.3%. The viability, T/C (second compound 0.1 µM, first compound 0.03 µM) was 92.1%, the viability, T/C (second compound 0.1 µM, first compound 0.0949 µM) was 78.6% and the viability, T/C (second compound 0.1 µM, first compound 0.3 µM) was 69.6%. For the same molecule, the viability, T/C (second compound 0.1 µM, first compound 0.949 µM) was 82.5%, the viability, T/C (second compound 0.1 µM, first compound 3 µM) was 58.6% and the viability, T/C (second compound 0.316 µM, first compound 0.00949 µM) was 84%. The viability, T/C (second compound 0.316 µM, first compound 0.03 µM) was 76.4%, the viability, T/C (second compound 0.316 µM, first compound 0.0949 µM) was 75.2% and the viability, T/C (second compound 0.316 µM, first compound 0.3 µM) was 66.9%. It also gave a viability, T/C (second compound 0.316 µM, first compound 0.949 µM) of 58.5%, a viability, T/C (second compound 0.316 µM, first compound 3 µM) of 60.3% and a viability, T/C (second compound 1 µM, first compound 0.00949 µM) of 83.1%. It also gave a viability, T/C (second compound 1 µM, first compound 0.03 µM) of 77.6%, a viability, T/C (second compound 1 µM, first compound 0.0949 µM) of 78.9% and a viability, T/C (second compound 1 µM, first compound 0.3 µM) of 66.6%. It also gave a viability, T/C (second compound 1 µM, first compound 0.949 µM) of 58.8%, a viability, T/C (second compound 1 µM, first compound 3 µM) of 63% and a viability, T/C (second compound 3.16 µM, first compound 0.00949 µM) of 77.9%. It also gave a viability, T/C (second compound 3.16 µM, first compound 0.03 µM) of 69.7%, a viability, T/C (second compound 3.16 µM, first compound 0.0949 µM) of 92.9% and a viability, T/C (second compound 3.16 µM, first compound 0.3 µM) of 59.1%. The viability, T/C (second compound 3.16 µM, first compound 0.949 µM) was 61.6%, the viability, T/C (second compound 3.16 µM, first compound 3 µM) was 56.7% and the viability, T/C (second compound 10 µM, first compound 0.00949 µM) was 85.9%. The viability, T/C (second compound 10 µM, first compound 0.03 µM) was 82.3%, the viability, T/C (second compound 10 µM, first compound 0.0949 µM) was 75.4% and the viability, T/C (second compound 10 µM, first compound 0.3 µM) was 68.8%. The viability, T/C (second compound 10 µM, first compound 0.949 µM) was 56.5% and the viability, T/C (second compound 10 µM, first compound 3 µM) was 58.3%.
